# Molecular target: Procathepsin L (Homo sapiens, UniProt P07711)
# Assay: Inhibition of human cathepsin L
# Procathepsin L, sequence (P07711 whole entry): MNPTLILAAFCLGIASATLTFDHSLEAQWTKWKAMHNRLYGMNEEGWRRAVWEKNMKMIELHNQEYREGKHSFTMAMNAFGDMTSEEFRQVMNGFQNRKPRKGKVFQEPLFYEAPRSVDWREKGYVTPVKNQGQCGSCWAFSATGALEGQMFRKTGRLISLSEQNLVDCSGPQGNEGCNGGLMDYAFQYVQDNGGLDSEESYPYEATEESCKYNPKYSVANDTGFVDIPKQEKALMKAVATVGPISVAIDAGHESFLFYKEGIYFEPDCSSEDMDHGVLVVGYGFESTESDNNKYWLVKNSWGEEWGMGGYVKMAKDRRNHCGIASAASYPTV
row,SMILES,IC50 [µM]
1,COc1cccc(/C=C/C(=O)NC[C@H](Cc2ccccc2)NS(=O)(=O)c2ccc(C(F)(F)F)cc2)c1,> 100
2,COc1ccc(/C=C/C(=O)NC[C@@H](Cc2ccccc2)NS(=O)(=O)c2ccc(Br)cc2)cc1OC,> 100
3,N#Cc1ccccc1N1CCN(C[C@@H](O)COC[C@@H](Cc2ccccc2)NC(=O)c2ccncc2)CC1,29.8
4,COc1cccc(/C=C/C(=O)NC[C@H](Cc2ccccc2)NS(=O)(=O)c2ccc(Br)cc2)c1,> 100
5,COc1ccc(/C=C/C(=O)NC[C@@H](Cc2ccccc2)NS(=O)(=O)c2ccc(C(F)(F)F)cc2)cc1OC,12.3
6,COc1cccc(/C=C/C(=O)NC[C@@H](Cc2ccccc2)NS(=O)(=O)c2ccc(C(F)(F)F)cc2)c1,51.7

# Now from value to molecule:
row,IC50 [µM],SMILES
1,7.5,N#Cc1ccccc1N1CCN(C[C@H](O)COC[C@@H](Cc2ccccc2)NS(=O)(=O)c2ccc(Br)cc2)CC1
2,41.1,N#Cc1ccccc1N1CCN(C[C@H](O)COC[C@H](Cc2ccccc2)NS(=O)(=O)c2ccc(C(F)(F)F)cc2)CC1
3,8.53,N#Cc1ccccc1N1CCN(C[C@H](O)COC[C@H](Cc2ccccc2)NS(=O)(=O)c2ccc(Br)cc2)CC1
4,46.2,N#Cc1ccccc1N1CCN(C[C@H](O)COC[C@@H](Cc2ccccc2)NC(=O)c2ccncc2)CC1
5,18.6,N#Cc1ccccc1N1CCN(C[C@@H](O)COC[C@H](Cc2ccccc2)NC(=O)c2ccncc2)CC1
6,9.37,N#Cc1ccccc1N1CCN(C[C@H](O)COC[C@H](Cc2ccccc2)NC(=O)c2ccncc2)CC1

# Molecular target: Cathepsin S (Homo sapiens, UniProt P25774)
# Sequence (P25774 whole entry): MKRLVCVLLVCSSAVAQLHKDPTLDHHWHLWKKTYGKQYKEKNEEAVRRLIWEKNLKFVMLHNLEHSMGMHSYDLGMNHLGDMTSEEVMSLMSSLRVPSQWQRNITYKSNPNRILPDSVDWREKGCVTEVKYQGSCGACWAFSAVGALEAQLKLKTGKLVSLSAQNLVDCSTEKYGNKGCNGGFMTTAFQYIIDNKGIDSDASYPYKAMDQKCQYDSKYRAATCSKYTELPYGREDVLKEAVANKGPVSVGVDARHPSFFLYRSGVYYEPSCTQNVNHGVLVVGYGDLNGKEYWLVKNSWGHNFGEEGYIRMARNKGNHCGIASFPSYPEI
# Assay: Inhibition of human cathepsin S
row,SMILES,IC50 [µM]
1,COc1cccc(/C=C/C(=O)NC[C@H](Cc2ccccc2)NS(=O)(=O)c2ccc(C(F)(F)F)cc2)c1,> 100
2,COc1ccc(/C=C/C(=O)NC[C@@H](Cc2ccccc2)NS(=O)(=O)c2ccc(Br)cc2)cc1OC,> 100
3,N#Cc1ccccc1N1CCN(C[C@@H](O)COC[C@@H](Cc2ccccc2)NC(=O)c2ccncc2)CC1,48.9
4,COc1cccc(/C=C/C(=O)NC[C@H](Cc2ccccc2)NS(=O)(=O)c2ccc(Br)cc2)c1,> 100
5,COc1ccc(/C=C/C(=O)NC[C@@H](Cc2ccccc2)NS(=O)(=O)c2ccc(C(F)(F)F)cc2)cc1OC,21.2
6,COc1cccc(/C=C/C(=O)NC[C@@H](Cc2ccccc2)NS(=O)(=O)c2ccc(C(F)(F)F)cc2)c1,64.5

# More lines, now with the values ahead:
row,IC50 [µM],SMILES
1,4.38,N#Cc1ccccc1N1CCN(C[C@H](O)COC[C@@H](Cc2ccccc2)NS(=O)(=O)c2ccc(Br)cc2)CC1
2,30.7,N#Cc1ccccc1N1CCN(C[C@H](O)COC[C@H](Cc2ccccc2)NS(=O)(=O)c2ccc(C(F)(F)F)cc2)CC1
3,7.72,N#Cc1ccccc1N1CCN(C[C@H](O)COC[C@H](Cc2ccccc2)NS(=O)(=O)c2ccc(Br)cc2)CC1
4,23.1,N#Cc1ccccc1N1CCN(C[C@H](O)COC[C@@H](Cc2ccccc2)NC(=O)c2ccncc2)CC1
5,28.8,N#Cc1ccccc1N1CCN(C[C@@H](O)COC[C@H](Cc2ccccc2)NC(=O)c2ccncc2)CC1
6,16.1,N#Cc1ccccc1N1CCN(C[C@H](O)COC[C@H](Cc2ccccc2)NC(=O)c2ccncc2)CC1

# Molecular target: Cathepsin B (Homo sapiens, UniProt P07858)
# Assay: Inhibition of human cathepsin B
row,SMILES,IC50 [µM]
1,COc1cccc(/C=C/C(=O)NC[C@H](Cc2ccccc2)NS(=O)(=O)c2ccc(C(F)(F)F)cc2)c1,> 100
2,COc1ccc(/C=C/C(=O)NC[C@@H](Cc2ccccc2)NS(=O)(=O)c2ccc(Br)cc2)cc1OC,> 100
3,N#Cc1ccccc1N1CCN(C[C@@H](O)COC[C@@H](Cc2ccccc2)NC(=O)c2ccncc2)CC1,> 100
4,COc1cccc(/C=C/C(=O)NC[C@H](Cc2ccccc2)NS(=O)(=O)c2ccc(Br)cc2)c1,> 100
5,COc1ccc(/C=C/C(=O)NC[C@@H](Cc2ccccc2)NS(=O)(=O)c2ccc(C(F)(F)F)cc2)cc1OC,> 100
6,COc1cccc(/C=C/C(=O)NC[C@@H](Cc2ccccc2)NS(=O)(=O)c2ccc(C(F)(F)F)cc2)c1,> 100

# Now from value to molecule:
row,IC50 [µM],SMILES
1,> 100,N#Cc1ccccc1N1CCN(C[C@H](O)COC[C@@H](Cc2ccccc2)NS(=O)(=O)c2ccc(Br)cc2)CC1
2,> 100,N#Cc1ccccc1N1CCN(C[C@H](O)COC[C@H](Cc2ccccc2)NS(=O)(=O)c2ccc(C(F)(F)F)cc2)CC1
3,> 100,N#Cc1ccccc1N1CCN(C[C@H](O)COC[C@H](Cc2ccccc2)NS(=O)(=O)c2ccc(Br)cc2)CC1
4,> 100,N#Cc1ccccc1N1CCN(C[C@H](O)COC[C@@H](Cc2ccccc2)NC(=O)c2ccncc2)CC1
5,> 100,N#Cc1ccccc1N1CCN(C[C@@H](O)COC[C@H](Cc2ccccc2)NC(=O)c2ccncc2)CC1
6,> 100,N#Cc1ccccc1N1CCN(C[C@H](O)COC[C@H](Cc2ccccc2)NC(=O)c2ccncc2)CC1

# Molecular target: T1, Cathepsin K (Homo sapiens, UniProt P43235)
# T1 sequence (P43235 whole entry): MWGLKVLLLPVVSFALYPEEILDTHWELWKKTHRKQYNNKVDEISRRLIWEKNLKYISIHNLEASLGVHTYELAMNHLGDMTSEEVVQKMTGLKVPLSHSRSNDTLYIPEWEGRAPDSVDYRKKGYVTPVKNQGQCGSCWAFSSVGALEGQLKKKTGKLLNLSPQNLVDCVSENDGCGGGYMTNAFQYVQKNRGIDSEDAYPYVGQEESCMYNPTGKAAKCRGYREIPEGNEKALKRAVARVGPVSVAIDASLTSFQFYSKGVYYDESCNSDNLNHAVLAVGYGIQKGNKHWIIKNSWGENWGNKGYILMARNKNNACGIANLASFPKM
# Assay: Inhibition of human cathepsin K
row,SMILES,IC50 [µM]
1,COc1cccc(/C=C/C(=O)NC[C@H](Cc2ccccc2)NS(=O)(=O)c2ccc(C(F)(F)F)cc2)c1,> 100
2,COc1ccc(/C=C/C(=O)NC[C@@H](Cc2ccccc2)NS(=O)(=O)c2ccc(Br)cc2)cc1OC,> 100
3,N#Cc1ccccc1N1CCN(C[C@@H](O)COC[C@@H](Cc2ccccc2)NC(=O)c2ccncc2)CC1,> 100
4,COc1cccc(/C=C/C(=O)NC[C@H](Cc2ccccc2)NS(=O)(=O)c2ccc(Br)cc2)c1,> 100
5,COc1ccc(/C=C/C(=O)NC[C@@H](Cc2ccccc2)NS(=O)(=O)c2ccc(C(F)(F)F)cc2)cc1OC,> 100
6,COc1cccc(/C=C/C(=O)NC[C@@H](Cc2ccccc2)NS(=O)(=O)c2ccc(C(F)(F)F)cc2)c1,> 100

# Other lines, results leading:
row,IC50 [µM],SMILES
1,> 100,N#Cc1ccccc1N1CCN(C[C@H](O)COC[C@@H](Cc2ccccc2)NS(=O)(=O)c2ccc(Br)cc2)CC1
2,> 100,N#Cc1ccccc1N1CCN(C[C@H](O)COC[C@H](Cc2ccccc2)NS(=O)(=O)c2ccc(C(F)(F)F)cc2)CC1
3,> 100,N#Cc1ccccc1N1CCN(C[C@H](O)COC[C@H](Cc2ccccc2)NS(=O)(=O)c2ccc(Br)cc2)CC1
4,> 100,N#Cc1ccccc1N1CCN(C[C@H](O)COC[C@@H](Cc2ccccc2)NC(=O)c2ccncc2)CC1
5,> 100,N#Cc1ccccc1N1CCN(C[C@@H](O)COC[C@H](Cc2ccccc2)NC(=O)c2ccncc2)CC1
6,> 100,N#Cc1ccccc1N1CCN(C[C@H](O)COC[C@H](Cc2ccccc2)NC(=O)c2ccncc2)CC1

# Reference: ChEMBL document CHEMBL5236605, “Design and synthesis of dual cathepsin L and S inhibitors and antimetastatic activity evaluation in pancreatic cancer cells” (Bioorg Med Chem Lett, 2023)
